Measurements reported in patent publication US20180169177A1, “POLYPEPTIDE SPECIFICALLY BINDING TO CD34 MOLECULE AND USE THEREOF” (Guangzhou Yidai Pharmaceutical Co., Ltd., priority 2015, published 2018).

What was measured:
[1] = system: ductal epithelial cells and vascular endothelial cells of salivary gland; assay: Immunofluorescence binding to salivary gland tissue sections; assay type: cell-based, human; settings: 2 μg/mL polypeptide, 1 hour, room temperature, 6 μm frozen sections, FIG. 6a
Procedure: In the example, immunofluorescence is used to test the binding between polypeptide and ductal epithelial cells and vascular endothelial cells of salivary gland.
Embed the human salivary gland tissues with OCT, and slice them in a thickness of 6 μm at −20° C., fix with acetone for 15 minutes, use PBS to wash them for three times, 5 minutes each time. Incubate them with 2 μg/mL CD34 binding polypeptide (polypeptide 17) at room temperature for 1 hour, use PBS to wash for three times, 10 minutes each time. Drop 20 μL anti-fluorescence quenching agent for mounting, and preserve them being protected from light at 4° C., fluorescence microscope is used to observe and photograph.

[2] = target: T1, CD34 molecules of K562 leukemia cells (Homo sapiens, UniProt P28906); assay: Co-immunoprecipitation of CD34 binding polypeptide, fluorescence intensity by fluorospectrophotometer; settings: 2b; for binding of polypeptide to protein co-immunoprecipitated with CD34 antibodies (fluorescence intensity): K562 total protein, CD34 antibody co-immunoprecipitation, NanoDrop 3300, FIGS. 2a
T1 construct: endogenous in cells; host or cells: K562
T1 sequence (P28906 32-385): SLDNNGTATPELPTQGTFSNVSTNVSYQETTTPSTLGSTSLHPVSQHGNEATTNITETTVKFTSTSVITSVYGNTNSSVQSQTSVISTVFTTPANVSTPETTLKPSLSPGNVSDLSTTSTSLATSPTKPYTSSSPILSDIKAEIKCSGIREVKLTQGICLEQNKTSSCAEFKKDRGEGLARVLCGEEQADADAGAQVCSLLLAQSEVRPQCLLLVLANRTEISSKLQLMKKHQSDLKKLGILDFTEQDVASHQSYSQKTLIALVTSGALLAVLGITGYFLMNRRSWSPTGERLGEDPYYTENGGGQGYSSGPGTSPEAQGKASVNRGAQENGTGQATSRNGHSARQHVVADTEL
Procedure: (1) extracting total protein: wash K562 cell once with pre-cooled PBS buffer solution, remove the PBS, add 500 μL non-denatured protein lysate containing protease inhibitor into the culture dish, collect cells into a 1.5 mL centrifuge tube, perform ultra sonication for 4 times, 4 seconds each time, leave them on the ice for 30 minutes, and centrifuge them at 8000 rpm at 4° C. for 20 minutes, transfer the supernatant into a new centrifuge tube to obtain total protein products;
(2) pretreatment of cellular total protein: add 50 μL confining liquid of normal goat serum into the cellular total protein products, and incubate them on the ice for 1 hour, then add 100 μL G-protein microsphere suspension (Calbiochem), incubate them at 4° C. for 20 minutes, centrifuge and remove the G-protein microsphere.
(3) Co- immunoprecipitation: add CD34 antibodies (AR) into the total protein pretreated in step (2), take it as experimental groups, set control groups, wherein equal amount of PBS antibody diluent is added, and incubate them at 4° C. for 8 hours;
(4) Binding of polypeptides and purification of G-protein antibodies: add polypeptides 17 and 19 into respective experimental groups and control group respectively, meanwhile add G-protein microsphere suspension, and incubate them at 4° C. for 4 hours;
(5) Washing and elution: centrifuge at 4° C. to remove the supernatant, use washing liquor to wash for three times, centrifuge and remove the supernatant, add 2× SDS buffer solution in a volume the same as that of G-protein microsphere, treat them at 50° C. for 10 minutes, centrifuge and remove the microspheres, transfer the supernatant into a new EP tube, and add DTT (dithiothreitol) until the final concentration is 100 mM;
(6) Testing fluorescence intensities of experimental groups and control groups using micro fluorospectro photometer (NanoDrop 3300).

[3] = system: CD34 negative cells (peripheral blood cells); assay: Magnetic separation, binding to CD34 negative blood cells; assay type: cell-based; settings: other blood cells
Procedure: Mix polypeptides 17 and 19 adhering to the surfaces of nano-magnetic beads respectively with K562 cells and peripheral blood cells, and incubate them for 1 hour. Use magnetic sorter to sort, and the sorting efficiency of K562 cells is higher than 95%. […] A schematic diagram of the example is shown in FIG. 5, and the specific operation for magnetic separation of the example can be performed according to conventional magnetic techniques in the art.

[4] = system: K562 cells; assay: Effect of CD34 binding polypeptide on proliferation of K562 cells; assay type: cell-based; settings: 2 μg/ml polypeptide, replenished every 48 hours, counted for 6 days, FIG. 9
Procedure: (1) Inoculate well-grown K562 cells in a 24-hole plate in cell concentration of 6000/ml/hole; set two experimental groups, wherein polypeptides 17 and 19 (polypeptide concentration is 2 μg/ml) are added into culture solutions respectively; set control groups, wherein polypeptide diluent in the same amount of polypeptide is added into the culture solution.
(2) Count once every 24 hours, replenish CD34 binding polypeptide (polypeptide concentration is 2 μg/ml) once every 48 hours, and the counting lasts for 6 days; repeat the experiment three times;
(3) draw cell growth curves, wherein the Y-axis is indicative of mean value of cell density each day, the X-axis is indicative of incubation time.

[5] = target: T2, CD34 molecules in K562 leukemia cells (Homo sapiens, UniProt P28906); assay: Immunofluorescence co-localisation of CD34 binding polypeptide and CD34 antibodies; settings: fixed K562 cells, confocal microscope, FIGS. 3a, 3b
T2 construct: endogenous in cells; host or cells: K562
T2 sequence (P28906 32-385): T1 sequence (P28906 32-385)
Procedure: (1) Preparation of cells: incubate K562 cell suspension in an incubator (37° C., 5% CO2). When the cell density reaches 80%, centrifuge and remove the culture solution, wash it once using PBS buffer solution, centrifuge it, take the cell suspension and drop it onto a glass slide coated with polylysine, and use cold acetone to fix for 10 minutes after drying.
(2) Use PBS buffer solution to wash for three times, 5 minutes each time, and then use 5% BSA confining liquid to seal it at room temperature for 1 hour.
(3) Incubation of primary antibodies: drop the primary antibody diluent of CD34 antibodies (AR) onto a slide, incubate it at 4° C. over night. Use PBS buffer solution to wash it for three times, 5 minutes each time.
(4) Incubation of second antibodies and binding to polypeptide: add polypeptides 17 and 19 into diluted anti-rabbit antibodies labeled by Alexa Fluor 561 respectively, drop them onto cover glasses, incubate them at room temperature and keep shielded from light for 1 hour. Use PBS buffer solution to wash for three times, 5 minutes each time.
(5) Use 1 μg/mL DAPI to stain at room temperature and keep shielded from light for 5 minutes, use PBS buffer solution to wash it for three times, 5 minutes each time.
(6) After mounting with anti-fluorescence quenching agent, use laser scanning confocal microscope to observe and photograph.

[6] = system: K562 cells; assay: Effect of CD34 binding polypeptide on adhesion of CD34 positive cells; assay type: cell-based; settings: 2 μg/mL polypeptide, 6 hours, plates of FN, Collagen I and Mareigel, versus control NC, FIG. 4
Procedure: Add the polypeptides 17 and 19 into incubating holes to set respective experimental groups (final concentration of polypeptide is 2 μg/mL).

[7] = system: MNNG/HOS cells; assay: Binding between CD34 binding polypeptide and human osteosarcoma cell line MNNG/HOS; assay type: cell-based; settings: 2 μg/ml, 37° C., 2 hours, CD34 negative cell line, fluorescence microscope
Procedure: Add 2 μg/ml polypeptides 17 and 19 into two culture dishes of well-grown MNNG/HOS cells (density of 80%) respectively, incubate them in an incubator at 37° C. for 2 hours, remove the culture solution, use 1 ml PBS to wash them for 3 times, add 5 ml culture solution, and use a fluorescence microscope to observe the binding between polypeptide and MNNG/HOS cells.

Substance | binding to ductal epithelial cells and vascular endothelial cells of salivary gland tissue [1] | binding of polypeptide to protein co-immunoprecipitated with CD34 antibodies (fluorescence intensity) [2] | binding to CD34 negative cells [3] | proliferation rate of K562 leukemia cells versus control group [4] | binding to CD34 molecules (overlap of polypeptide green fluorescence and CD34 antibody red fluorescence) [5] | adhesion of K562 cells (count of adherent cells) [6] | binding between fluorescent polypeptide and MNNG/HOS cells [7] | binding specificity, comparison between polypeptides ([2]; co-immunoprecipitation with CD34 antibodies, FIGS. 2a)
polypeptide 17: synthetic CD34 binding polypeptide displayed by phage 17, amino acid sequence SEQ ID NO: 1 (SSFASKKGYPFNRMCAS; Non-antibody binding protein capable of binding to CD34) | bind to ductal epithelial cells and vascular endothelial cells of salivary gland tissue | can specifically bind | won't bind to CD34 negative cells | no significant difference | have bound to CD34 molecules | inhibit the adhesion of K562 cells significantly | No binding | –
polypeptide 19: synthetic CD34 binding polypeptide displayed by phage 19, amino acid sequence SEQ ID NO: 2 (SSLGWWGPRRDFPGRRERIYLGIPWLSLLGSGAPSPV; Non-antibody binding protein capable of binding CD34) | – | can specifically bind | won't bind to CD34 negative cells | no significant difference | have bound to CD34 molecules | inhibit the adhesion of K562 cells significantly, especially the culture solution containing the polypeptide 19 | No binding | better binding specificity than the polypeptide 17
